Source: patent US20140155406A1, “4-IMIDAZOPYRIDAZIN-1-YL-BENZAMIDES AND 4-IMIDAZOTRIAZIN-1-YL-BENZAMIDES BTK INHIBITORS” (priority 2011, published 2014)

What was measured:
Assay type in all cases: biochemical
[1] = biological target: T1, Lck enzyme (Homo sapiens, UniProt P06239); experiment: Lck enzyme activity, IMAP fluorescence polarization assay; conditions: 60 min pre-incubation, 6 μM ATP (Km)
T1 construct: purchased Millipore 14-442

[2] = biological target: T2, Lyn enzyme (Homo sapiens, UniProt P07948); experiment: Lyn enzyme activity, IMAP fluorescence polarization assay; conditions: 60 min pre-incubation, 2 μM ATP (Km)
T2 construct: purchased Millipore 14-510

[3] = biological target: T3, FynT enzyme (Homo sapiens, UniProt P06241); experiment: FynT enzyme activity, IMAP fluorescence polarization assay; conditions: 60 min pre-incubation, 0.2 μM ATP (Km)
T3 construct: purchased Biomol SE-287
Outline: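 FynT (125 ng/mL final) pre-incubated 60 min at RT with compound (10 μM–0.316 nM, 1% DMSO) in pH 7.2 Tris/Mg/Mn buffer, then 100 nM fluorescein p34cdc2 peptide and 0.2 μM ATP (Km) for 2 h at RT. IMAP binding FP read at 535 nm; EC50 from curve fit versus ±ATP controls.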

Measured: EC50

T1 sequence (P06239 whole entry): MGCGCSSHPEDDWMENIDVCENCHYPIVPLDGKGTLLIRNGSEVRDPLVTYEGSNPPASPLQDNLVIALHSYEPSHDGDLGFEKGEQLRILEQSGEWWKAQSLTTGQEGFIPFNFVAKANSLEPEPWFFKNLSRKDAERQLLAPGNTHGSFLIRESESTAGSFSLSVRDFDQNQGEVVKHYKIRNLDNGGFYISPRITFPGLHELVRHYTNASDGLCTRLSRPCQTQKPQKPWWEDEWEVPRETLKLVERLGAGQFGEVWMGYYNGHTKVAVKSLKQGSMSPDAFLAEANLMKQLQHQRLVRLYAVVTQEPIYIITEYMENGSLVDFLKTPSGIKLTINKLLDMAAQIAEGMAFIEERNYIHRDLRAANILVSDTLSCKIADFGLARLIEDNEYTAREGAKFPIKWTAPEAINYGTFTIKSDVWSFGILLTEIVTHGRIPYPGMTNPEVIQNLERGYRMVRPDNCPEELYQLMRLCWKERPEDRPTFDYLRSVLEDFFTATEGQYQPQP
T2 sequence (P07948 whole entry): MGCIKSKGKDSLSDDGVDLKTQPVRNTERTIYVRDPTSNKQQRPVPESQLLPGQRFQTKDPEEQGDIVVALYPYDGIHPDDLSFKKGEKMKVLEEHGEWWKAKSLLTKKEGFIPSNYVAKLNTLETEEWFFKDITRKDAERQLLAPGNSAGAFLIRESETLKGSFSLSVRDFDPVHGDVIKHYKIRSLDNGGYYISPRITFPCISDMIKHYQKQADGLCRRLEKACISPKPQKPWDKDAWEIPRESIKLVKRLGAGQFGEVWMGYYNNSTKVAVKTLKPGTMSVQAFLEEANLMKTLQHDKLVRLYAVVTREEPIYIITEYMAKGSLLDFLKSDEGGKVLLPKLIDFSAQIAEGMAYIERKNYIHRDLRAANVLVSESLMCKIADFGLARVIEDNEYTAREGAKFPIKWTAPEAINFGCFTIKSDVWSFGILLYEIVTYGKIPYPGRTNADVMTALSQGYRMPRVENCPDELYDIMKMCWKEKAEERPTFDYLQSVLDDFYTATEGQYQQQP
T3 sequence (P06241 1-534 isoform P06241-2): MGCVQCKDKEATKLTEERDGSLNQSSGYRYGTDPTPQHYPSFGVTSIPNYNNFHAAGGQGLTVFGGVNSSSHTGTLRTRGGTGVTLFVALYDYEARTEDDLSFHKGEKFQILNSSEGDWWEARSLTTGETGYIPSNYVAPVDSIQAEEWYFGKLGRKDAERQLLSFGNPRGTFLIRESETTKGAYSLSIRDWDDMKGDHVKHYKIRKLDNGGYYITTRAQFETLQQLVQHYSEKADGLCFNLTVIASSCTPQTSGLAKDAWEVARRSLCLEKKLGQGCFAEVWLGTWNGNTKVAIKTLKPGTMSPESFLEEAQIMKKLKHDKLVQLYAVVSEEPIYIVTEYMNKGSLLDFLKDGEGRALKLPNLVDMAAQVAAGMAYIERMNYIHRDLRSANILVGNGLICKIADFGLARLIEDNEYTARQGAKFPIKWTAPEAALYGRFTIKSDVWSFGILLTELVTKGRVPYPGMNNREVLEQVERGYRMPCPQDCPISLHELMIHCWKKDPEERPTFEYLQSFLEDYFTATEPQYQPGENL

C=CS(=O)(=O)N1CCCC[C@H]1c1nc(-c2ccc(C(=O)Nc3cc(CCC)ccn3)cc2)c2c(C)nccn12 [Example 4, (S)-4-(8-Methyl-3-(1-(vinylsulfonyl)piperidin-2-yl)imidazo[1,5-a]pyrazin-1-yl)-N-(4-propylpyridin-2-yl)benzamide]
≥ 1000 nM: all assays above

C=CC(=O)N1CCC[C@H]1c1nc(-c2ccc(C(=O)Nc3cc(C(F)(F)F)ccn3)cc2)c2c(C)nccn12 [Example 10, (S)-4-(3-(1-Acryloylpyrrolidin-2-yl)-8-methylimidazo[1,5-a]pyrazin-1-yl)-N-(4-(trifluoromethyl)pyridin-2-yl)benzamide]
≥ 1000 nM: all assays above

Cc1nccn2c([C@@H]3CCCCN3C(=O)/C=C/CN3CCCC3)nc(-c3ccc(C(=O)Nc4cc(C(F)(F)F)ccn4)cc3)c12 [Example 21, (S,E)-4-(8-methyl-3-(1-(4-(pyrrolidin-1-yl)but-2-enoyl)piperidin-2-yl)imidazo[1,5-a]pyrazin-1-yl)-N-(4-(trifluoromethyl)pyridin-2-yl)benzamide]
≥ 1000 nM: all assays above

CC#CC(=O)N[C@@H](C)c1nc(-c2ccc(C(=O)Nc3cc(CCC)ccn3)cc2)c2c(C)nccn12 [Example 38, (S)-4-(3-(1-but-2-ynamidoethyl)-8-methylimidazo[1,5-a]pyrazin-1-yl)-N-(4-propylpyridin-2-yl)benzamide]
≥ 1000 nM: all assays above

C=CC(=O)N1CCCC[C@H]1c1nc(-c2ccc(C(=O)Nc3cc(C(F)(F)F)ccn3)cc2)c2c(C)nccn12 [Example 27, (S)-4-(3-(1-acryloylpiperidin-2-yl)-8-methylimidazo[1,5-a]pyrazin-1-yl)-N-(4-(trifluoromethyl)pyridin-2-yl)benzamide]
≥ 1000 nM: all assays above

CCCc1ccnc(NC(=O)c2ccc(-c3nc([C@H](C)N(C)C(=O)/C=C/CN(C)C)n4ccnc(C)c34)cc2)c1 [Example 18, (S,E)-4-(3-(1-(4-(dimethylamino)-N-methylbut-2-enamido)ethyl)-8-methylimidazo[1,5-a]pyrazin-1-yl)-N-(4-propylpyridin-2-yl)benzamide]
≥ 1000 nM: all assays above

CC#CC(=O)N(C)[C@@H](C)c1nc(-c2ccc(C(=O)Nc3cc(CCC)ccn3)cc2)c2c(C)nccn12 [Example 24, (S)-4-(8-methyl-3-(1-(N-methylbut-2-ynamido)ethyl)imidazo[1,5-a]pyrazin-1-yl)-N-(4-propylpyridin-2-yl)benzamide]
≥ 1000 nM: all assays above

C=CC(=O)N[C@@H](C)c1nc(-c2ccc(C(=O)Nc3cc(C(F)(F)F)ccn3)cc2)c2c(C)nccn12 [Example 8, (S)-4-(3-(1-Acrylamidoethyl)-8-methylimidazo[1,5-a]pyrazin-1-yl)-N-(4-(trifluoromethyl)pyridin-2-yl)benzamide]
≥ 1000 nM: all assays above

CCCc1ccnc(NC(=O)c2ccc(-c3nc([C@@H]4CCCCN4C(=O)/C=C/CN(C)C)n4ccnc(C)c34)cc2)c1 [Example 3, (S,E)-4-(3-(1-(4-(Dimethylamino)but-2-enoyl)piperidin-2-yl)-8-methylimidazo[1,5-a]pyrazin-1-yl)-N-(4-propylpyridin-2-yl)benzamide]
≥ 1000 nM: all assays above
